From patent US6620828B2, “Thiazole compounds and pharmaceutical compositions for inhibiting protein kinases and methods for their use” (Agouron Pharmaceuticals, Inc., priority 1999, dated 2003)
Structures can show the parent of a compound that is named as a salt. Where two headings read alike, the source gives them in different places.

Key:
[1] = biological target: T1, phosphorylated VEGF-R2Δ50 (FLVK-P) (Homo sapiens, UniProt P35968, DEL940-989/E990V); test: VEGF-R2 coupled spectrophotometric (FLVK-P) assay; format: biochemical; settings: for Ki: spectrophotometric assay; for inhibition at 1 µM: Table 3; for FLVK-P % inhibition @ 50: at 50, concentration unit not printed (head nM)
T1 construct: VEGF-R2Δ50 contains residues 806-939 and 990-1171; made in house; host or cells: baculovirus/insect cells
T1 sequence (P35968 with tags, fused parts or gaps DEL940-989/E990V limits assumed): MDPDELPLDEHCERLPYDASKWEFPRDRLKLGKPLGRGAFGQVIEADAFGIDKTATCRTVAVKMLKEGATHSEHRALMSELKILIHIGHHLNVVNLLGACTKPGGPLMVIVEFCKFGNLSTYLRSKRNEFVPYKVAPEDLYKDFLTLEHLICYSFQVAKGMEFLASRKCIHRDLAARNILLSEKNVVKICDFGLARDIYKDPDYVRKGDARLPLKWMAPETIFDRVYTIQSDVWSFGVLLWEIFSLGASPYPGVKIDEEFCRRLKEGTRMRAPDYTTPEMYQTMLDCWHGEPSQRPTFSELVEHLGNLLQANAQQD
Excerpt: VEGF-R2 Construct for Assay: This construct determines the ability of a test compound to inhibit tyrosine kinase activity. A construct (VEGF-R2Δ50) of the cytosolic domain of human vascular endothelial growth factor receptor 2 (VEGF-R2) lacking the 50 central residues of the 68 residues of the kinase insert domain was expressed in a baculovirus/insect cell system. Of the 1356 residues of full-length VEGF-R2, VEGF-R2Δ50 contains residues 806-939 and 990-1171, and also one point mutation (E990V) within the kinase insert domain relative to wild-type VEGF-R2. Autophosphorylation of the purified construct was performed by incubation of the enzyme at a concentration of 4 μM in the presence of 3 mM ATP and 40 mM MgCl2 in 100 mM Hepes, pH 7.5, containing 5% glycerol and 5 mM DTT, at 4° C. for 2 h. […] See Parast et al., Biochemistry, 37, 16788-16801 (1998).
Coupled Spectrophotometric (FLVK-P) Assay
The production of ADP from ATP that accompanies phosphoryl transfer was coupled to oxidation of NADH using phosphoenolpyruvate (PEP) and a system having pyruvate kinase (PK) and lactic dehydrogenase (LDH). The oxidation of NADH was monitored by following the decrease of absorbance at 340 nm (e340=6.22 cm^−1 mM^−1) using a Beckman DU 650 spectrophotometer. Assay conditions for phosphorylated VEGF-R2Δ50 (indicated as FLVK-P in the tables below) were the following: 1 mM PEP; 250 μM NADH; 50 units of LDH/mL; 20 units of PK/mL; 5 mM DTT; 5.1 mM poly(E4Y1); 1 mM ATP; and 25 mM MgCl2 in 200 mM Hepes, pH 7.5. Assay conditions for unphosphorylated VEGF-R2Δ50 (indicated as FLVK in the tables) were the following: 1 mM PEP; 250 μM NADH; 50 units of LDH/mL; 20 units of PK/mL; 5 mM DTT; 20 mM poly(E4Y1); 3 mM ATP; and 60 mM MgCl2 and 2 mM MnCl2 in 200 mM Hepes, pH 7.5. Assays were initiated with 5 to 40 nM of enzyme. Ki values were determined by measuring enzyme activity in the presence of varying concentrations of test compounds. The data were analyzed using Enzyme Kinetic and Kaleidagraph software.

[2] = tested on: human umbilical vein endothelial cells (HUVEC); test: HUVEC proliferation assay; format: cell-based; settings: for inhibition at 0.15 µM / inhibition at 0.001 µM / inhibition at 0.01 µM: Homo sapiens, HUVEC; for inhibition at 0.15 µM / % inhibition @ 150 nM: Table I screening results, 150 nM; for % inhibition @ 150 nM: 0.15 µM; for inhibition at 0.001 µM: 1 nM; for inhibition at 0.01 µM: 10 nM, read-out: % inhibition @ 10 nM
How it was run: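 Exponentially growing HUVEC were serum-starved 24 h (F12K + 1% FBS), pre-treated 1 h with compound (0.1% DMSO final), then stimulated with 6 ng/ml VEGF. Proliferation was read 72 h later by MTT reduction (A595). IC50 came from seven 0.5-log concentrations in triplicate; screens gave % inhibition relative to VEGF-only and starved wells.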

[3] = crude combinatorial amide library
[4] = Table II screening results, crude combinatorial amide library
[5] = table following Table II (untitled), crude combinatorial library

Structure (SMILES) | Ki ([1]; Table 1) [nM] | inhibition at 0.15 µM [2, 3] [%] | also measured
COc1cc(Nc2nc(N)c(C3=NC(c4ccc(Br)cc4)CO3)s2)cc(OC)c1OC (racemic) [I(12), (R/S)-5-[4-(4-Bromo-phenyl)-4,5-dihydro-oxazol-2-yl]-N^2-(3,4,5-trimethoxy-phenyl)-thiazole-2,4-diamine] | – | – | FLVK-P % inhibition @ 20 ([1]; Table 2, at 20 (head μM)): 71% @
COCOc1cccc(-c2noc(-c3sc(Nc4cc(OC)c(OC)c(OC)c4)nc3N)n2)c1 [B(4), 5-[3-(3-Methoxymethoxy-phenyl)-[1,2,4]oxadiazol-5-yl]-N^2-(3,4,5-trimethoxy-phenyl)-thiazole-2,4-diamine] | – | – | Ki ([1]; Table 2): 200 nM
CC(C)(C)OC(=O)Nc1cccc(-c2noc(-c3sc(Nc4cccc(C#N)c4)nc3N)n2)c1 [B(40)] | – | – | inhibition at 1 µM [1]: 31%
COc1cc(Nc2nc(N)c(-c3nc(-c4cccc(NC(C)=O)c4)cs3)s2)cc(OC)c1OC [D(1), N-{3-[4′-Amino-2′-(3,4,5-trimethoxy-phenylamino)-[2,5′]bithiazolyl-4-yl]-phenyl}acetamide] | 46 | – | –
COc1cc(Nc2nc(N)c(-c3nc(-c4cccc(NS(=O)(=O)Cc5ccccc5)c4)cs3)s2)cc(OC)c1OC [D(2), N-{3-[4′-Amino-2′-(3,4,5-trimethoxy-phenylamino)-[2,5′]bithiazolyl-4-yl]-phenyl}-C-phenyl-methanesulfonamide] | 98 | – | –
COc1cc(Nc2nc(N)c(-c3nc(-c4cccc(NC(=O)c5cc(Cl)ccn5)c4)cs3)s2)cc(OC)c1OC [D(11), 4-Chloro-pyridine-2-carboxylic acid {3-[4′-amino-2′-(3,4,5-trimethoxy-phenylamino)-[2,5′]bithiazolyl-4-yl]-phenyl}-amide] | 1.9 | – | –
COc1cc(Nc2nc(N)c(-c3nc(-c4cccc(NC(=O)CCc5ccccc5)c4)cs3)s2)cc(OC)c1OC [D(16), N-{3-[4′-Amino-2′-(3,4,5-trimethoxy-phenylamino)-[2,5′]bithiazolyl-4-yl]-phenyl}-3-phenyl-propionamide] | 11.8 | – | –
COc1cc(Nc2nc(N)c(-c3nc(-c4cccc(NC(=O)c5ccc(F)cc5)c4)cs3)s2)cc(OC)c1OC [D(28), N-{3-[4′-Amino-2′-(3,4,5-trimethoxy-phenylamino)-[2,5′]bithiazolyl-4-yl]-phenyl}-4-fluoro-benzamide] | 6 | – | –
COc1cc(Nc2nc(N)c(-c3nc(-c4cccc(NC(=O)c5ccc(C)c(C)c5)c4)cs3)s2)cc(OC)c1OC [D(31), N-{3-[4′-Amino-2′-(3,4,5-trimethoxy-phenylamino)-[2,5′]bithiazolyl-4-yl]-phenyl}-3,4-dimethyl-benzamide] | 4.8 | – | –
Nc1nc(Nc2cccnc2)sc1-c1nc(-c2cccc(NC(=O)c3cccc(Cl)c3)c2)no1 [D(52), 3-[3-(3-Chlorobenzamido)phenyl]-5-[2-(3-aminopyridyl)-4-amino-5-thiazolyl]-1,2,4-oxadiazole] | – | – | FLVK-P % inhibition @ 50 ([1]; Table 1): 27% @
COc1cc(Nc2nc(N)c(-c3nc(-c4cccc(NC(=O)c5cnc(C)s5)c4)cs3)s2)cc(OC)c1OC [D(53), 2-Methyl-thiazole-5-carboxylic acid {3-[4′-amino-2′-(3,4,5-trimethoxy-phenylamino)-[2,5′]bithiazolyl-4-yl]-phenyl}-amide] | 2.5 | – | –
COc1cc(Nc2nc(N)c(-c3nc(-c4cccc(NC(=O)c5cccc(Cl)n5)c4)cs3)s2)cc(OC)c1OC [D(54), 6-Chloro-pyridine-2-carboxylic acid {3-[4′-amino-2′-(3,4,5-trimethoxy-phenylamino)-[2,5′]bithiazolyl-4-yl]-phenyl}-amide] | 6.3 | – | –
COc1cc(Nc2nc(N)c(-c3nc(-c4cccc(NC(=O)c5ccnc(Cl)c5)c4)cs3)s2)cc(OC)c1OC [D(55), N-{3-[4′-Amino-2′-(3,4,5-trimethoxy-phenylamino)-[2,5′]bithiazolyl-4 yl]-phenyl}-2-chloro-isonicotinamide] | 6.3 | – | –
COc1cc(Nc2nc(N)c(-c3nc(-c4cccc(NC(=O)c5cc(C)cc(C)c5)c4)no3)s2)cc(OC)c1OC [D(56), N-(3-{5-[4-Amino-2-(3,4,5-trimethoxy-phenylamino)-thiazol-5-yl]-[1,2,4]oxadiazol-3-yl}-phenyl)-3,5-dimethyl-benzamide trifluoroacetate salt] | 0.81 | – | –
COc1cc(Nc2nc(N)c(-c3nc(-c4cccc(NC(=O)c5ccccc5C)c4)no3)s2)cc(OC)c1OC [D(57), N-(3-{5-[4-Amino-2-(3,4,5-trimethoxy-phenylamino)-thiazol-5-yl]-[1,2,4]oxadiazol-3-yl}-phenyl)-2-methyl-benzamide trifluoroacetate salt] | 18 | – | –
N#Cc1cccc(Nc2nc(N)c(-c3nc(-c4cccc(NC(=O)c5cccc(Cl)c5)c4)no3)s2)c1 [D(78)] | – | – | inhibition at 1 µM [1]: 9%

Structure (SMILES) | Ki ([1]; Table 1) [nM] | inhibition at 0.15 µM [2, 3] [%] | also measured
COC(=O)Nc1nc(N)c(-c2nc(-c3cccc(NC(=O)c4ccc(Cl)s4)c3)cs2)s1 [F(3), (4′-Amino-4-{3-[(5-chloro-thiophene-2-carbonyl)-amino]-phenyl}-[2,5′]bithiazolyl-2′-yl)-carbamic acid methyl ester] | 80 | – | –
CC(=O)Nc1nc(N)c(-c2nc(-c3cccc(NC(=O)c4cccc(Cl)c4)c3)no2)s1 [F(4), N-{3-[5-(2-Acetylamino-4-amino-thiazol-5-yl)-[1,2,4]oxadiazol-3-yl]-phenyl}-3-chloro-benzamide] | – | – | FLVK-P % inhibition @ 50 ([1]; Table 1): 33% @
COc1cc(Nc2nc(N)c(-c3nc(-c4cccc(NC(=O)c5cc6ccccc6o5)c4)cs3)s2)cc(OC)c1OC [drawing 844] | – | 40 | –
COc1cc(Nc2nc(N)c(-c3nc(-c4cccc(NC(=O)c5ccccc5)c4)cs3)s2)cc(OC)c1OC [drawing 845] | – | 33 | –
COc1cc(Nc2nc(N)c(-c3nc(-c4cccc(NC(=O)COc5ccccc5)c4)cs3)s2)cc(OC)c1OC [drawing 868] | – | 10 | –
COc1cc(Nc2nc(N)c(-c3nc(-c4cccc(NC(=O)CCc5ccccc5)c4)cs3)s2)cc(OC)c1OC [drawing 884] | – | 4 | –
COc1cc(Nc2nc(N)c(-c3nc(-c4cccc(NC(=O)c5sc(C)nc5C)c4)cs3)s2)cc(OC)c1OC [drawing 894] | – | 19 | –
COc1cc(Nc2nc(N)c(-c3nc(-c4cccc(NC(=O)c5cnc6ccccc6c5)c4)cs3)s2)cc(OC)c1OC [drawing 896] | – | 42 | –
COc1cc(Nc2nc(N)c(-c3nc(-c4cccc(NC(=O)c5ncoc5-c5ccccc5)c4)cs3)s2)cc(OC)c1OC [drawing 897] | – | 64 | –
COc1cc(Nc2nc(N)c(-c3nc(-c4cccc(NC(=O)c5ccc(C)s5)c4)cs3)s2)cc(OC)c1OC [drawing 916] | – | 32 | –
COc1cc(Nc2nc(N)c(-c3nc(-c4cccc(NC(=O)c5ccc(Br)o5)c4)cs3)s2)cc(OC)c1OC [drawing 929] | – | 34 | –
COc1cc(Nc2nc(N)c(-c3nc(-c4cccc(NC(=O)c5ccc(C(C)C)cc5)c4)cs3)s2)cc(OC)c1OC [drawing 943] | – | – | % inhibition @ 150 nM [2, 3]: 6%
COc1cccc(C(=O)Nc2cccc(-c3csc(-c4sc(Nc5cc(OC)c(OC)c(OC)c5)nc4N)n3)c2)c1 [drawing 999] | – | 108 | –
COc1cc(Nc2nc(N)c(-c3nc(-c4cccc(NC(=O)c5ccc(C(C)C)cc5)c4)cs3)s2)cc(OC)c1OC [drawing 1003] | – | – | % inhibition @ 150 nM [2, 3]: 17%
CNC(=O)Nc1nc(N)c(-c2nc(-c3cccc(NC(=O)c4cccc(OC)c4)c3)cs2)s1 [drawing 1034] | – | – | inhibition at 0.001 µM [2, 4]: 2%; inhibition at 0.01 µM [2, 4]: 91%
COc1cccc(C(=O)Nc2ccc(C)c(-c3noc(-c4sc(Nc5cc(OC)c(OC)c(OC)c5)nc4N)n3)c2)c1 [drawing 1122] | – | – | inhibition at 0.001 µM [2, 5]: 35%; inhibition at 0.01 µM [2, 5]: 94%
